Assay results published in ChEMBL document CHEMBL1158725, “Microbial genomics as a guide to drug discovery and structural elucidation: ECO-02301, a novel antifungal agent, as an example” (2005).
Values after ≈ are worked out from the molar mass of the structure shown.

What was measured:
Type in all cases: functional
Candida albicans = test: Antifungal activity against Candida albicans ATCC 10231 by broth dilution susceptibility test
Nakaseomyces glabratus = test: Antifungal activity against Candida glabrata ATCC 90030 by broth dilution susceptibility test
Clavispora lusitaniae = test: Antifungal activity against Candida lusitaniae ATCC 200953 by broth dilution susceptibility test
Candida tropicalis = test: Antifungal activity against Candida tropicalis ATCC 200955 by broth dilution susceptibility test
Pichia kudriavzevii = test: Antifungal activity against Candida krusei LSPQ 0309 by broth dilution susceptibility test
Saccharomyces cerevisiae = test: Antifungal activity against Saccharomyces cerevisiae ATCC 9763 by broth dilution susceptibility test
Aspergillus fumigatus = test: Antifungal activity against Aspergillus fumigatus ATCC 204305 by broth dilution susceptibility test
Aspergillus flavus = test: Antifungal activity against Aspergillus flavus ATCC 204304 by broth dilution susceptibility test
Cryptococcus neoformans = test: Antifungal activity against Cryptococcus neoformans ATCC 32045 by broth dilution susceptibility test

SMILES | MIC (Candida albicans) [µg/mL] | MIC (Nakaseomyces glabratus) [µg/mL] | MIC (Clavispora lusitaniae) [µg/mL] | MIC (Candida tropicalis) [µg/mL] | MIC (Pichia kudriavzevii) [µg/mL] | MIC (Saccharomyces cerevisiae) [µg/mL] | MIC (Aspergillus fumigatus) [µg/mL] | MIC (Aspergillus flavus) [µg/mL] | MIC (Cryptococcus neoformans) [µg/mL]
CC(/C=C/CC/C=C/C=C/C=C/C=C/C(=O)NC1=C(O)CCC1=O)C(O)C(C)C(O)/C=C/C=C/C=C/C=C/C=C/CC(O[C@@H]1O[C@@H](C)[C@H](O)[C@@H](O)[C@H]1O)C(C)C(=O)CC(O)CC(O)CC(O)/C=C/CC(O)CC(O)CC(O)CC(O)/C=C/CC(O)CC(O)CCCN (stereo in doubt) | 4 (≈ 3.08 µM) | 4 (≈ 3.08 µM) | 4 (≈ 3.08 µM) | 4 (≈ 3.08 µM) | 4 (≈ 3.08 µM) | 4 (≈ 3.08 µM) | 16 (≈ 12.3 µM) | ≥ 8 | 4 (≈ 3.08 µM)
C[C@@H]1[C@H](O)[C@@H](C)/C=C/C=C/C=C/C=C/C=C/C=C/C=C/[C@H](O[C@@H]2O[C@H](C)[C@@H](O)[C@H](N)[C@@H]2O)C[C@@H]2O[C@](O)(C[C@@H](O)C[C@@H](O)[C@H](O)CC[C@@H](O)C[C@@H](O)CC(=O)O[C@H]1C)C[C@H](O)[C@H]2C(=O)O [AMPHOTERICIN B] | 1 (≈ 1.08 µM) | 1 (≈ 1.08 µM) | 1 (≈ 1.08 µM) | 2 (≈ 2.16 µM) |  | 1 (≈ 1.08 µM) | 2 (≈ 2.16 µM) | 4 (≈ 4.33 µM) | 
